Measurements: patent US11066369B2, “N-(pyridin-2-yl)pyridine-sulfonamide derivatives and their use in the treatment of disease” (Novartis AG, priority 2016, dated 2021)

Columns and labels:
[1] = target: T1, horseradish peroxidase (HRP) tagged delF508-CFTR (Homo sapiens, UniProt P13569, DEL508-508); assay: Measurement of delF508-CFTR-HRP surface expression in CFBE41o- cells; assay type: cell-based; settings: delF508-CFTR-HRP surface expression, CFBE41o- cells; for Emax: read-out: DelF508-CFTR-HRP Amax %; for EC50: read-out: DelF508-CFTR-HRP EC50;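 on DelF508-CFTR-HRP Amax %: percent efficacy relative to reference corrector lumacaftor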
T1 construct: expressed in transfected cells
In short: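 CFBE41o- bronchial epithelial cells stably expressing delF508-CFTR with HRP in the fourth extracellular loop; expression induced 48h with 500 ng/mL doxycycline, then compounds added (top 10 μM, 10-point 3-fold series, ≤0.5% DMSO) for 24h at 37° C. Surface HRP measured by luminescence with cell-impermeant substrate; EC50 from logistic fit of triplicates, plate-normalized to lowest concentration; efficacy also relative to a reference corrector.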

delF508-CFTR = target: T2, delF508-CFTR (Homo sapiens, UniProt P13569, DEL508-508); assay: Measurement of delF508-CFTR functional activity in primary human bronchial epithelial cells (HBECs) using Multi-Transepithelial Clamp Circuit (MTECC-24) assay; assay type: cell-based; settings: primary CF HBECs; for MTECC24 CFHBEC- Amax %: test compound added 24h before assay plus potentiator, relative to reference combination (2 μM corrector + 0.5 μM potentiator); for EC50: test compound added 24h before assay, in the presence of potentiator, mean of at least two replicates, read-out: MTECC24 CFHBEC- EC50
T2 construct: functional activity of the CFTR channel (Chloride ion transport) in patient derived primary human bronchial epithelial cells; host or cells: patient-derived primary human bronchial epithelial cells (delF508-CFTR)
From the text: [formula] Measurement of delF508-CFTR Functional Activity in Primary Human Bronchial Epithelial Cells (HBECs) Using Multi-Transepithelial Clamp Circuit (MTECC-24) Assay
This assay measures the functional activity of the CFTR channel (Chloride ion transport) in patient derived primary human bronchial epithelial cells with forskolin activation and in the presence of the CFTR corrector/potentiator combo.
Primary human delF508-CFTR bronchial epithelial cells were purchased from Asterand and cultured according to previously established methods (Fulcher et al. (2005) Methods Mol Med 107: 183-206). Briefly, vendor supplied cells were rapidly defrosted and added to a T175 flask in 50 mL growth media (Lonza BEBM media with Lonza BEGM singlequots). Media was replaced after 24h and then cells were fed every other day until cells were 80-90% confluent, at which point cells were cryopreserved. These P1 vials were thawed at 37° C. as needed and added to T175 flasks in 50 mL growth media at 5×10^5 cells/flask. Media was replaced after 24h, and then cells were fed every other day until 80-90% confluent. Cells were lifted with 5 mL accutase at 37° C. for 5 minutes, centrifuged at 1000 rpms for 5 min (300 g), and resuspended in differentiation media (50% BEBM in DMEM, BEGM singlequots, all trans retinoic acid (5×10^−8M)). Cells were then counted and cell suspension was added to collagen coated inserts at 3×10^4 cells/insert in 0.15 mL with 0.5 mL differentiation media on the basolateral side.
Apical and basolateral media were replaced on alternate days, and following day 7 (or when confluent plus 2 days), air liquid interface was established for approximately two weeks by removal of apical media. One day prior to use on the MTECC24 system (EP-Devices, EP Design, Belgium), 0.15 mL of warmed (37° C.) PBS was added to the apical surface of the cultures and returned to humidifier (37° C., 5% CO2 incubator) for 30 min before aspirating the apical surface to remove any mucus.
Compound treatments were then prepared. Compound dilutions, typically a 10 point concentration response with 1 in 3 dilution steps, were made in 100% DMSO before dilution 1 in 1000 into differentiation medium with a final DMSO concentration of 0.1% or 0.2% for the study. Compound containing medium was then transferred into the wells of a 24 well plate at 0.5 mL per well and warmed for 30 min in a 37° C. incubator prior to transferring washed inserts into the compound containing plates. Cells were incubated in compound containing medium (basolateral only) for 24h prior to measurement in the MTECC24 system.
Following 24 hr treatment, compound dilutions were prepared again, diluted 1 in 1000 into 37° C. assay medium (F-12 Coon's modified, 20 mM HEPES pH7.4 with TRIS Base, No FCS or bicarbonate). Cells which were treated for 24h with test compound were then transferred into plates containing 0.75 mL compound treatment in assay medium (basolateral) and 0.25 mL of the compound containing assay medium was added to the apical surface. The plates were then transferred to the heated plate compartments of the MTECC24 system for 45 min prior to measurements (this can also be done in a non-CO2 37° C. humidified incubator). Basolateral temperature should not exceed 36.5° C. and apical temperature should be approximately 35.5° C.
Modulators were added sequentially as follows while the MTECC24 instrument recorded the equivalent short circuit current (Ieq):
Prior to dilution into F-12 medium the stocks are as follows:
Amiloride stock is 10 mM in H2O
Forskolin Stock is 10 mM in 100% DMSO
(S)-3-amino-6-methoxy-N-(3,3,3-trifluoro-2-hydroxy-2-methylpropyl)-5-(trifluoromethyl)picolinamide is 0.5 mM stock in 100% DMSO
INH-172 (4-[[4-Oxo-2-thioxo-3-[3-trifluoromethyl)phenyl]-5-thiazolidinylidene]methyl]benzoic acid) stock is 30 mM in 100% DMSO
The data was normalized using the median signal from wells treated with 0.1% DMSO as a baseline. […]

T1 sequence (P13569 with tags, fused parts or gaps DEL508-508): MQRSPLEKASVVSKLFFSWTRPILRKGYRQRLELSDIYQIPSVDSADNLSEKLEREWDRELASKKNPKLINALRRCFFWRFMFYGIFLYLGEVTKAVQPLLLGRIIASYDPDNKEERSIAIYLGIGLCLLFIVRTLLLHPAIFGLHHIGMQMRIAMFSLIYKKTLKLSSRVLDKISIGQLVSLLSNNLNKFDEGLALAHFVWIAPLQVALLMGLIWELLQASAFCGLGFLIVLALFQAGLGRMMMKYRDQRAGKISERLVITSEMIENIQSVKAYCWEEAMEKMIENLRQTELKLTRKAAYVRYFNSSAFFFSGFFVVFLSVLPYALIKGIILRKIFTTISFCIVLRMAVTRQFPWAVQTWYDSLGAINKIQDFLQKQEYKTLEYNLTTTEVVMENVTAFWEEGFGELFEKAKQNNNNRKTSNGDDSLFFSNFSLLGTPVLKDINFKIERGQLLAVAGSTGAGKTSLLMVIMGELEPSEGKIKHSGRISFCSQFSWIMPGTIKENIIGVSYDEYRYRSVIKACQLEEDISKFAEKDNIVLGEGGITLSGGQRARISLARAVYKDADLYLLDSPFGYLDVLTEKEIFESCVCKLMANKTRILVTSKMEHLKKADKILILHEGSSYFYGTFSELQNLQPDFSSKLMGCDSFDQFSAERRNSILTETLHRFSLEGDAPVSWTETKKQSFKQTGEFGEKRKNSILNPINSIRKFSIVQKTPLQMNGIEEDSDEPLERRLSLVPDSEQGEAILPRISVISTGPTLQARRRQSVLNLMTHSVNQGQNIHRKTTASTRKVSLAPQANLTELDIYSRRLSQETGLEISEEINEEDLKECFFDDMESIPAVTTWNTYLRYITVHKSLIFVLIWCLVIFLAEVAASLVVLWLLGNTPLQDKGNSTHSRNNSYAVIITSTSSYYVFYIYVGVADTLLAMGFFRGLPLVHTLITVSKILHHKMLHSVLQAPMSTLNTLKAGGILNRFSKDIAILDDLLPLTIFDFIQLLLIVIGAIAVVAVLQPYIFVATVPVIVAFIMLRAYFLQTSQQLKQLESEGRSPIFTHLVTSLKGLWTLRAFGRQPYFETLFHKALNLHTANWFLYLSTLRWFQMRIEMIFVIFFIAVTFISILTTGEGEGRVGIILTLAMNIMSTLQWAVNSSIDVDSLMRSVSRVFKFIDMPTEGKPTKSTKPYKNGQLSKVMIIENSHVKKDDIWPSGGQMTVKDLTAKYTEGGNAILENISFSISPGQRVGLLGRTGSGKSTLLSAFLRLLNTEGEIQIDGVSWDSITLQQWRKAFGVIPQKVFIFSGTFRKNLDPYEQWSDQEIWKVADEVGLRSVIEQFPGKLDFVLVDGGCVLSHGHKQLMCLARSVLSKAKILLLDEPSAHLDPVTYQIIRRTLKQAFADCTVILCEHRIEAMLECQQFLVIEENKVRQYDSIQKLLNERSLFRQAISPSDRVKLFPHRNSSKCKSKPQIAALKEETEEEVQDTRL
T2 sequence (P13569 with tags, fused parts or gaps DEL508-508): as above

Row | SMILES | Emax [1] | EC50 [1] | MTECC24 CFHBEC- Amax % (delF508-CFTR) | EC50 (delF508-CFTR)
1 | Cc1ccc(F)cc1-c1nc(NS(=O)(=O)c2ccnc(N)c2)ccc1C(F)(F)F [Example 42, 2-amino-N-(6-(5-fluoro-2-methylphenyl)-5-(trifluoromethyl)pyridin-2-yl)pyridine-4-sulfonamide] | 367% | 2260 nM | 72.4% | 39.9 nM
2 | Nc1cccc(S(=O)(=O)Nc2ccc(Cl)c(-c3cc(C(F)(F)F)ccc3Cl)n2)n1 [Example 43, 6-amino-N-(5-chloro-6-(2-chloro-5-(trifluoromethyl)phenyl)pyridin-2-yl)pyridine-2-sulfonamide] | 361% | 2120 nM | 54.2% | 63.3 nM
3 | Cc1ccc(F)cc1-c1nc(NS(=O)(=O)c2ccc(N)nc2)ccc1Cl [Example 44, 6-amino-N-(5-chloro-6-(5-fluoro-2-methylphenyl)pyridin-2-yl)pyridine-3-sulfonamide] | 346% | 1770 nM | 61.6% | 46 nM
4 | Nc1cccc(S(=O)(=O)Nc2ccc(Cl)c(-c3ccccc3C(F)(F)F)n2)n1 [Example 55, 6-amino-N-(5-chloro-6-(2-(trifluoromethyl)phenyl)pyridin-2-yl)pyridine-2-sulfonamide] | 305% | 1700 nM | 86.7% | 15.5 nM
5 | Nc1cccc(S(=O)(=O)Nc2ccc(Cl)c(-c3ccc(F)cc3Cl)n2)n1 [Example 56, 6-amino-N-(5-chloro-6-(2-chloro-4-fluorophenyl)pyridin-2-yl)pyridine-2-sulfonamide] | 301% | 2580 nM | 63.9% | 28.3 nM
6 | Cc1ccccc1-c1nc(NS(=O)(=O)c2ccnc(N)c2)ccc1Cl [Example 57, 2-amino-N-(5-chloro-6-(o-tolyl)pyridin-2-yl)pyridine-4-sulfonamide] | 285% | 1080 nM | 72.9% | 118 nM
7 | Nc1cc(S(=O)(=O)Nc2ccc(Cl)c(-c3ccccc3C(F)(F)F)n2)ccn1 [Example 61, 2-amino-N-(5-chloro-6-(2-(trifluoromethyl)phenyl)pyridin-2-yl)pyridine-4-sulfonamide] | 251% | 2620 nM | 74.0% | 103 nM
8 | COc1ccc(F)cc1-c1nc(NS(=O)(=O)c2cccc(N)n2)ccc1Cl [Example 62, 6-amino-N-(5-chloro-6-(5-fluoro-2-methoxyphenyl)pyridin-2-yl)pyridine-2-sulfonamide] | 240% | 1730 nM | 46.1% | 51.2 nM
9 | Cc1c(C#N)cccc1-c1nc(NS(=O)(=O)c2cccc(N)n2)ccc1Cl [Example 67, 6-amino-N-(5-chloro-6-(3-cyano-2-methylphenyl)pyridin-2-yl)pyridine-2-sulfonamide] | 214% | 1840 nM | 45.8% | 114 nM
10 | Nc1cccc(S(=O)(=O)Nc2ccc(Cl)c(-c3cccc(C(F)(F)F)c3)n2)n1 [Example 73, 6-amino-N-(5-chloro-6-(3-(trifluoromethyl)phenyl)pyridin-2-yl)pyridine-2-sulfonamide] | 163% | 4240 nM | 64.2% | 134 nM
11 | Cc1cccc(C)c1-c1nc(NS(=O)(=O)c2cccnc2N)ccc1Cl [Example 74, 2-amino-N-(5-chloro-6-(2,6-dimethylphenyl)pyridin-2-yl)pyridine-3-sulfonamide] | 158% | 2580 nM | 67.3% | 283 nM
12 | Nc1cccc(S(=O)(=O)Nc2ccc(Cl)c(-c3c(F)cccc3F)n2)n1 [Example 80, 6-amino-N-(5-chloro-6-(2,6-difluorophenyl)pyridin-2-yl)pyridine-2-sulfonamide] | 137% | 2280 nM | 50.7% | 96 nM
